Common to all, as to format: ADME, organism-based
Conditions in all cases: in vivo

Series [1] can be described thus: AUC (0 to t) in female C57BL/6NJ mouse at 50 mg/kg, ip measured upto 24 hrs by UHPLC-ESI-Q-Orbitrap-MS analysis. The arrangement: dose 50 mg/kg, time < 24 hrs, route ip.
A short description of series [2]: Observed apparent oral clearance in female C57BL/6NJ mouse at 50 mg/kg, ip measured upto 24 hrs by UHPLC-ESI-Q-Orbitrap-MS analysis.
Series [3] can be described thus: Observed apparent oral clearance in male C57BL/6NJ mouse at 50 mg/kg, ip measured upto 24 hrs by UHPLC-ESI-Q-Orbitrap-MS analysis.
Series [4] in a line: AUC (0 to t) in male C57BL/6NJ mouse at 50 mg/kg, ip measured upto 24 hrs by UHPLC-ESI-Q-Orbitrap-MS analysis. Further details: time < 24 hrs, dose 50 mg/kg, route ip.

Regarding `Cc1sc2c(c1C)C(c1ccc(Cl)cc1)=N[C@@H](CC(=O)OC(C)(C)C)c1nnc(C)n1-2`, the AUCt was 41.1 µg/mL/h in series [1] and 75.1 µg/mL/h in series [4]. Besides, the CL/F is given as 1.22 (mg)/(ug/ml)/hr in series [2] and 0.661 (mg)/(ug/ml)/hr in series [3].

In the case of `[2H]C([2H])([2H])c1sc2c(c1C)C(c1ccc(Cl)cc1)=N[C@@H](CC(=O)OC(C)(C)C)c1nnc(C)n1-2`, the AUCt worked out at 50.5 µg/mL/h in series [1] and 94.2 µg/mL/h in series [4]. Also, in series [3], the CL/F is recorded as 0.528 (mg)/(ug/ml)/hr.

The values are drawn from ChEMBL document CHEMBL5357011, “Chemical Catalysis Guides Structural Identification for the Major In Vivo Metabolite of the BET Inhibitor JQ1” (ACS Med Chem Lett, 2024).
